# Laboratory results from patent EP0466548A1, “1,2,3,4,5,6-Hexahydroazepino[4,5-b]indole and 1,2,3,4-tetrahydro-beta-carbolines, processes for their preparation, and pharmaceutical compositions containing them” (ADIR ET COMPAGNIE, priority 1990, dated 1992).
# Experiments:
# [1] = test system: rats mâles, Sprague Dawley; experiment: Anti-inflammatory activity: carrageenan-induced paw oedema (plethysmography); format: in vivo, rat; conditions: 30 to 60 min before carrageenan, paw volume 3 h after carrageenan
# Experimental: Le potentiel antiinflammatoire des composés a été recherché selon un modèle d'inflammation aigue provoquée par injection sous cutanée de carragénine au niveau de la patte postérieure du rat selon une technique inspirée de WINTER et coll. […] J. Phamacol.
# Les rats mâles, Sprague Dawley de 200 à 300 g sont randomisés en lots de 10 et reçoivent les substances à tester par administration intra péritonéale 30 à 60 minutes avant l'injection locale au niveau de la patte arrière gauche de 0,1 ml d'une suspension à 0,5 % de Carragénine dans du sérum physiologique stérile.
# La patte arrière droite servant de témoin, reçoit une injection de sérum physiologique.
# Trois heures après l'injection de la Carragénine, les animaux sont anesthésiés de façon profonde au Narcorem R et le volume des deux pattes arrières mesuré par Pléthysmographie
# Les résultats sont exprimés en pourcentage de variation de volume v% : v% =(volume patte gauche - volume patte droite)/(volume patte droite) [formula] l'activité antiinflammatoire AAI% est définie par : [drawing 54]
# rat = experiment: Anxiolytic activity: elevated plus maze; format: in vivo; conditions: 60 min before test; for nb total d'entrées: 5 min test, control 14 ± 2; for % du temps passé dans le bras ouvert: control 22 % ± 5 %; for % d'entrées dans le bras ouvert: control 28 % ± 5 %
# Experimental: Le potentiel anxiolytique de ces produits a été recherché selon le test "elevated plus maze".
# Ce test permet d'étudier le comportement du rat, traité ou non, dans une situation de choix entre un espace clos rassurant ("bras clos") et un espace ouvert générateur d'anxiété ("bras ouvert").
# Le test consiste à compter le nombre d'entrées dans chaque bras du labyrinthe durant 5 minutes et à mesurer le temps passé dans le "bras ouvert".
# Les rats sont randomisés en lots de 8 et reçoivent les produits à tester par administration intrapéritonéale 60 minutes avant le début du test.
# souris = experiment: Analgesic activity: Acetic Acid Writhing test; format: in vivo; conditions: 50 mg/Kg intraperitoneal, 30 min before 0,3 cm³ acetic acid 1% i.p.; control 23 ± 14
# Experimental: Le potentiel analgésique de ces produits a été recherché selon le test dit "Acetic Acid Writhing" qui est basé sur le comptage des crampes abdominales induites chez la souris par injection intra péritonéale d'acide acétique (GAIRIN et Coll J. Pharmacol. Exp. Ther 245, 955 (1988))
# Les souris randomisées en lots de 10 reçoivent les produits à tester par voie intra péritonéale 30 minutes avant l'administration intra péritonéale de 0,3 cm³ d'acide acétique à 1%
# Le nombre de crampes est compté entre la 5ème et 20ème minutes après l'injection d'acide acétique.
SMILES,AAI% ([1]; 25 mg/Kg intraperitoneal),nb total d'entrées (rat; 100mg/Kg IP),% du temps passé dans le bras ouvert (rat; 100mg/Kg IP),% d'entrées dans le bras ouvert (rat; 100mg/Kg IP),AAI% ([1]; 50 mg/Kg intraperitoneal),Nombre de crampes par minute (entre la 5ème et la 20ème minutes) (souris),nb total d'entrées (rat; 50 mg/Kg IP),% du temps passé dans le bras ouvert (rat; 50 mg/Kg IP),% d'entrées dans le bras ouvert (rat; 50 mg/Kg IP)
"COC(=O)[C@@H]1Cc2c([nH]c3ccccc23)C2(CCN(C)CC2)N1 [[ 3-METHOXYCARBONYLE 1,2,3,4-TETRAHYDRO-β-CARBOLINE (3 S)]-1-SPIRO-4′- [ 1-METHYL PIPERIDINE]]",14%,18 ± 1,41 % ± 4%,44 % ± 3%,,,,,
"COC(=O)[C@@H]1Cc2c([nH]c3ccccc23)C2(CCCCC2)N1 [[ 3-METHOXYCARBONYLE 1,2,3,4-TETRAHYDRO-β-CARBOLINE (3 S)]-1-SPIRO-CYCLOHEXANE]",,,,,14%,1 ± 1,18 ± 2,40 % ± 6%,42 % ± 4%
